# Test results: patent US5624917A, “Method of inhibiting squalene synthetase” (Takeda Chemical Industries, Ltd., priority 1991, dated 1997)
# Structures can show the parent of a compound that is named as a salt. Where two headings read alike, the source gives them in different places.
# How the values were obtained:
# [1] = biological target: T1, squalene synthetase (Rattus norvegicus, UniProt Q02769); test: Squalene synthetase inhibitory activity, rat enzyme (rat liver microsome fraction); type: biochemical; details: 5 μM [1-3H]farnesylpyrophosphoric acid, pH 7.4, 37° C., 45 minutes
# T1 construct: from tissue; host or cells: liver of male SD rats (microsome fraction)
# T1 sequence (Q02769 1-416): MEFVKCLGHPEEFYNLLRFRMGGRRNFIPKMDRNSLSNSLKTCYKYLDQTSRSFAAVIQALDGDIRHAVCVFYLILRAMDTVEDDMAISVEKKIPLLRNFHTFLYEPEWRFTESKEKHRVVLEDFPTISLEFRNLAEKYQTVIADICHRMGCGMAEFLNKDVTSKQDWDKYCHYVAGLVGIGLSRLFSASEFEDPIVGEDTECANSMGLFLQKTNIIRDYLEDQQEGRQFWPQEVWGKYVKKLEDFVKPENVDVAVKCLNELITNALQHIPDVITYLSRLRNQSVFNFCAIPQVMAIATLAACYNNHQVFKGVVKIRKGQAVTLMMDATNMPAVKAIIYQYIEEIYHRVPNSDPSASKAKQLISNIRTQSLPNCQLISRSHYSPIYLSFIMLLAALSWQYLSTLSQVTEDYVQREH
# Protocol: (§1) Squalene synthetase inhibitory activity and cholesterol biosynthesis inhibitory activity of the compounds used in the present invention were determined by the following method.
# (§2) Determination of squalene synthetase inhibitory activity
# (§3) The squalene synthetase inhibitory activity was determined as follows by using the enzyme solutions shown in Experiments 1 and 2 below.
# (§4) Each enzyme solution (Protein: 0.8 μg) prepared in Experiments 1 and 2 was added to a solution (total amount: 50 μl) containing 5 μM[1-^3 H]farnesylpyrophosphoric acid (Specific activity 25 μCi/μmole), 1 mM NADPH, 5 mM MgCl2, 6 mM glutathione, 100 mM potassium phosphate buffer (pH 7.4) and a drug to be tested (which was added as a solution thereof in water or DMSO). The mixture was allowed to react at 37° C. for 45 minutes. A mixture (150 μl) of chloroform and methanol (1:2) was added to stop the reaction. Then, chloroform (50 μl) and 3N sodium hydroxide solution (50 μl) were added. The chloroform layer (under layer, 50 μl) containing the reaction products in which the major component was squalene was mixed with toluene liquid scintillator (3 ml). The radioactivity was measured with a liquid scintillation counter.
# (§5) The squalene synthetase inhibitory activity is indicated by the concentration (IC50, molarity(M)) which inhibits the radioactivity incorporated into the chloroform layer by 50%.
# Preparation of rat enzyme
# SD-Male rats (6 weeks old) were bled to death followed by removal of liver. The liver (ca. 10 g) was washed with ice-cooled physiological saline, homogenized in an ice-cooled buffer solution (15 ml) [100 mM potassium phosphate (pH 7.4), 15 mM nicotinamide, 2 mM MgCl2 ] and centrifuged at 10,000×g for 20 minutes (4° C.). The resulting supernatant was further centrifuged at 105,000×g for 90 minutes (4° C.). Then, the deposit was suspended in an ice-cooled 100 mM potassium phosphate buffer solution (pH 7.4) and centrifuged at 105,000×g for 90 minutes (4° C.) again. The deposit (microsome fraction) thus obtained was suspended in an ice-cooled 100 mM potassium phosphate buffer solution (pH 7.4) so that the protein concentration became about 40 mg/ml (measured with BCA Protein Assay Kit (Pias)), and the suspension was used as the enzyme solution.
# [2] = biological target: T2, squalene synthetase (Homo sapiens, UniProt P37268); test: Squalene synthetase inhibitory activity, human enzyme (HepG2 microsome fraction); type: biochemical
# T2 construct: From the resulting sonicate, microsome fraction was obtained according to the same manner as that described in Experiment 1; endogenous in cells; host or cells: HepG2 human hepatoma cells (microsome fraction)
# T2 sequence (P37268 1-417): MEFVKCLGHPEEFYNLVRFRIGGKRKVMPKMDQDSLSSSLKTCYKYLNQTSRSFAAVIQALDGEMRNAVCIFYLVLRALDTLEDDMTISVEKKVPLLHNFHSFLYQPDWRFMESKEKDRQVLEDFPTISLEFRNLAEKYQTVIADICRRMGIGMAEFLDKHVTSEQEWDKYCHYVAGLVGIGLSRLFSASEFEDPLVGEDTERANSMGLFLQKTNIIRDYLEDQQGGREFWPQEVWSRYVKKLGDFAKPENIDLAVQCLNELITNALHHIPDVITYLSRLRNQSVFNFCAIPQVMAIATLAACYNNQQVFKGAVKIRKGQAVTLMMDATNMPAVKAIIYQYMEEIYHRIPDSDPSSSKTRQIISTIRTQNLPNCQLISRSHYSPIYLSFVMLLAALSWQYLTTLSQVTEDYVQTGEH
# Protocol: as §1, §2, §3, §4, §5
# Preparation of human enzyme
# Cultivation was carried out on Dulbecco modified Eagle medium containing 10% bovine fetal serum in the presence of 5% CO2 at 37° C. The human hepatoma cells HepG2 (ca. 1×10^9 cells) were suspended in an ice-cooled buffer solution (10 ml) [100 mM potassium phosphate (pH 7.4), 30 mM nicotinamide, 2.5 mM MgCl2 ], and the cells were crushed by ultrasonication (30 seconds, twice). From the resulting sonicate, microsome fraction was obtained according to the same manner as that described in Experiment 1. This microsome fraction was suspended in an ice-cooled 100 mM potassium phosphate buffer solution (pH 7.4) so that the protein concentration became about 4 mg/ml, and this suspension was used as the enzyme liquid.
# [3] = read-out: IC50, squalene synthetase inhibitory activity, Rat enzyme
# [4] = human hepatoma HepG2 microsome fraction, 5 μM [1-3H]farnesylpyrophosphoric acid, pH 7.4, 37° C., 45 minutes, read-out: IC50, squalene synthetase inhibitory activity, Human enzyme
# [5] = IC50, squalene synthetase inhibitory activity, Rat enzyme
"IC50 [1, 3] [nM]","IC50 [2, 4] [nM]",SMILES,"IC50 [1, 5] [nM]",IC50 [2] [nM]
23,44,"CC(C)CCCC(C)CCCC(C)CCC(P(=O)(O)O)P(=O)(O)O (centres unmarked) [Compound No. 108, disodium 4,8,12-trimethyltridecylidene-1,1-bisphosphonate]",–,–
1300,5800,"O=P(O)(O)C(O)(CCCCCSc1ccccn1)P(=O)(O)O [Compound No. 109, trisodium 1-hydroxy-6-(2-pyridylthio)hexane-1,1-bisphosphonate]",–,–
44,61,"O=P(O)(O)C(NCCCCNc1ccccc1)P(=O)(O)O [Compound No. 110, 4-(phenylamino)butylaminomethylene-1,1-bisphosphonic acid hydrochloride]",–,–
–,–,"CCOP(=O)(O)C(NC/C=C(\C)CC/C=C(\C)CCC=C(C)C)P(=O)(O)O (centres unmarked) [Compound No. 111, (E,E)-farnesylaminomethylenebisphosphonic acid monoethyl ester monosodium salt]",19,22
–,–,"CCOP(=O)(O)C(NCCCCCCSc1ccccc1)P(=O)(O)O (centres unmarked) [Compound No. 113, 6-(phenylthio)hexylaminomethylenebisphosphonic acid monoethyl ester monosodium salt]",15,9.8
18,8.9,O=P(O)(O)C(NCCCCSc1ccccc1)P(=O)(O)O [compound 1],–,–
97,180,O=P(O)(O)C(NCCCCSc1ccccn1)P(=O)(O)O [compound 2],–,–
210,300,O=P(O)(O)C(NCCCCSc1ccncc1)P(=O)(O)O [compound 3],–,–
370,1300,CCSCCCCNC(P(=O)(O)O)P(=O)(O)O [compound 4],–,–
760,9100,CC(C)(C)SCCCCNC(P(=O)(O)O)P(=O)(O)O [compound 5],–,–
5.7,–,O=P(O)(O)C(NCCCCCSc1ccccc1)P(=O)(O)O [compound 6],–,–
19,18,O=P(O)(O)C(NCCCCCSC1CCCCC1)P(=O)(O)O [compound 7],–,–
68,110,CCSCCCCCNC(P(=O)(O)O)P(=O)(O)O [compound 8],–,–
9,6.3,O=P(O)(O)C(NCCCC[S+]([O-])c1ccccc1)P(=O)(O)O (centres unmarked) [compound 9],–,–
8.1,5.2,O=P(O)(O)C(NCCCCCOc1ccccc1)P(=O)(O)O [compound 10],–,–
3.6,1.5,O=P(O)(O)C(NCCCCCCSc1ccccc1)P(=O)(O)O [compound 11],–,–
6400,–,O=P(O)(O)C(NCCCCS(=O)(=O)c1ccccc1)P(=O)(O)O [compound 12],–,–
19,14,O=P(O)(O)C(NCCCCOc1ccc2c(c1)OCO2)P(=O)(O)O [compound 13],–,–
20,9.7,O=P(O)(O)C(NCCSCCc1ccccc1)P(=O)(O)O [compound 16],–,–

"IC50 [1, 3] [nM]","IC50 [2, 4] [nM]",SMILES,"IC50 [1, 5] [nM]",IC50 [2] [nM]
18,12,O=P(O)(O)C(NCCCSCc1ccccc1)P(=O)(O)O [compound 17],–,–
940,6400,O=P(O)(O)C(NC1CCCCCC1)P(=O)(O)O [compound 20],–,–
5500,–,"O=P(O)(O)C(CCCc1ccccc1)P(=O)(O)O [compound 21, 4-phenylbutylidene-1,1-bisphosphonic acid]",–,–
6,3.1,"O=P(O)(O)C(NCCCCCC[S+]([O-])c1ccccc1)P(=O)(O)O (centres unmarked) [compound 60, disodium 6-(phenylsulfinyl)hexylaminomethylenebisphosphonate]",–,–
0.58,0.47,O=P(O)(O)C(NCCCCCCCCCCSc1ccccc1)P(=O)(O)O [compound 61],–,–
4.3,2.2,CC(C)CCCC(C)CCCC(C)CCNC(P(=O)(O)O)P(=O)(O)O (centres unmarked) [compound 63],–,–
4.7,4,O=P(O)(O)C(NCCCCCC[S+]([O-])c1ccc2ccccc2c1)P(=O)(O)O (centres unmarked) [compound 66],–,–
4.5,4.6,O=P(O)(O)C(NCCCCCCCCCCC[S+]([O-])c1ccccc1)P(=O)(O)O (centres unmarked) [compound 72],–,–
8.8,7,O=P(O)(O)C(NCCCCCCCCCSc1ncccn1)P(=O)(O)O [compound 79],–,–
200,1800,O=P(O)(O)C(NCCCCCCSc1nnc2ccccn12)P(=O)(O)O [compound 81],–,–
4.3,8.4,O=P(O)(O)C(NCCCCCCSc1nc2ccccc2s1)P(=O)(O)O [compound 83],–,–
27,35,CC(C)=CCC/C(C)=C/CNC(P(=O)(O)O)P(=O)(O)O [compound 86],–,–
13,–,O=P(O)(O)C(NCCCCCSc1ccccc1)P(=O)(O)O [compound 88],–,–
8.1,–,"O=P(O)(O)C(NCCCCCCCCCCCCSc1ccccc1)P(=O)(O)O [compound 89, monosodium 12-(phenylthio)dodecylaminomethylenebisphosphonate]",–,–
19,20,CC(C)=CCC/C(C)=C/CC/C(C)=C/CNC(P(=O)(O)O)P(=O)(O)O [compound 93],–,–
6.9,6.7,CC(C)=CCC/C(C)=C/CC/C(C)=C/CNC(P(=O)(O)O)P(=O)(O)O [compound 99],–,–
12,12,O=P(O)(O)C(NCCCCCCCCCSc1ncccn1)P(=O)(O)O [compound 100],–,–
7.8,6.1,O=P(O)(O)C(NCCCCCCCCCCSc1ncccn1)P(=O)(O)O [compound 101],–,–
3.1,3,"O=P(O)(O)C(NCCCCCCCCCCCSc1ccccc1)P(=O)(O)O [compound 102, trisodium 11-(phenylthio)undecylaminomethylenebisphosphonate]",–,–

SMILES,"IC50 [1, 3] [nM]","IC50 [2, 4] [nM]","IC50 [1, 5] [nM]",IC50 [2] [nM]
CCOP(=O)(OCC)C(NCCCCCc1ccccc1)P(=O)(OCC)OCC [compound 14],560,450,–,–
CCOP(=O)(OCC)C(NCCCCCSC1CCCCC1)P(=O)(OCC)OCC [compound 15],4100,–,–,–
CCOP(=O)(OCC)C(NCCSCCc1ccccc1)P(=O)(OCC)OCC [compound 18],790,610,–,–
CCOP(=O)(OCC)C(NCCCCCCSc1ccccc1)P(=O)(OCC)OCC [compound 19],7500,6900,–,–
CCOP(=O)(OCC)C(NCCCCCCSc1ccc(Cl)cc1)P(=O)(OCC)OCC [compound 28],6200,3200,–,–
